Assay results reported in the supplement of paper PMC4862054.
Where “and” joins values, the source holds several entries; their conditions need not be identical. Equal values may be shown once.

system: CAL-51; assay: normalised viability (% of control), CellTiter-Blue; higher = more viable cells (about 100 = DMSO control); settings: 300 nM; incubation time: 72 h
Procedure: (§1)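 DSRT, CellTiter-Blue viability, 72 h incubation. Signal is normalised to DMSO and benzethonium chloride controls. Value is the normalised response at dose 6.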

Compound	normalised viability
Nc1ncn([C@H]2C[C@H](O)[C@@H](CO)O2)c(=O)n1 [Decitabine]	99% and 92.1%
O=C(O)C1(C(=O)O)CCC1.[NH2-].[NH2-].[Pt+2] [Carboplatin]	106%
N#Cc1ccc(C(c2ccc(C#N)cc2)n2cncn2)cc1 [Letrozole]	104%
C1CN1c1nc(N2CC2)nc(N2CC2)n1 [Triethylenemelamine]	105%
CCCS(=O)(=O)Nc1ccc(F)c(C(=O)c2c[nH]c3ncc(-c4ccc(Cl)cc4)cc23)c1F [Vemurafenib]	96.5%
O=C(O)C(=O)O.[NH-][C@@H]1CCCC[C@H]1[NH-].[Pt+2] [Oxaliplatin]	95.5%
CCN(CC)CCCC(C)Nc1c2ccc(Cl)cc2nc2ccc(OC)cc12 (centres undefined) [Mepacrine]	104%
Cc1ccc(-c2cc(C(F)(F)F)nn2-c2ccc(S(N)(=O)=O)cc2)cc1 [Celecoxib]	97%

system: DU-4475; assay: as above; settings: 29.7 nM; incubation time: 72 h
Procedure: as §1

Compound	normalised viability [%]
CCN(CC)CCCC(C)Nc1c2ccc(Cl)cc2nc2ccc(OC)cc12 (centres undefined) [Mepacrine]	88.3

same assay, conditions: 30 nM; incubation time: 72 h

Compound	normalised viability [%]
O=C(/C=C/c1cccnc1)NCCCCC1CCN(C(=O)c2ccccc2)CC1 [FK-866]	31.4
CC[C@@H]1C(=O)N(C)c2cnc(Nc3ccc(C(=O)NC4CCN(C)CC4)cc3OC)nc2N1C1CCCC1 [BI 2536]	18.1

same assay, conditions: 300 nM; incubation time: 72 h

Compound	normalised viability
Nc1nc(F)nc2c1ncn2[C@@H]1O[C@H](CO)[C@@H](O)[C@@H]1O [Fludarabine]	100%
Nc1ncn([C@H]2C[C@H](O)[C@@H](CO)O2)c(=O)n1 [Decitabine]	86% and 85.5%
O=C(O)C1(C(=O)O)CCC1.[NH2-].[NH2-].[Pt+2] [Carboplatin]	87.6%
N#Cc1ccc(C(c2ccc(C#N)cc2)n2cncn2)cc1 [Letrozole]	81.2%
C1CN1c1nc(N2CC2)nc(N2CC2)n1 [Triethylenemelamine]	97.2%
CCCS(=O)(=O)Nc1ccc(F)c(C(=O)c2c[nH]c3ncc(-c4ccc(Cl)cc4)cc23)c1F [Vemurafenib]	55.1%
O=C(O)C(=O)O.[NH-][C@@H]1CCCC[C@H]1[NH-].[Pt+2] [Oxaliplatin]	113%
CCN(CC)CCCC(C)Nc1c2ccc(Cl)cc2nc2ccc(OC)cc12 (centres undefined) [Mepacrine]	80.9%
Cc1ccc(-c2cc(C(F)(F)F)nn2-c2ccc(S(N)(=O)=O)cc2)cc1 [Celecoxib]	96%

system: MDA-MB-453; assay: as above; settings: 990 nM; incubation time: 72 h
Procedure: (§2)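 DSRT, CellTiter-Blue viability, 72 h incubation. Signal is normalised to DMSO and benzethonium chloride controls. Value is the normalised response at dose 9.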

Compound	normalised viability [%]
CCN(CC)CCCC(C)Nc1c2ccc(Cl)cc2nc2ccc(OC)cc12 (centres undefined) [Mepacrine]	15.7

same assay, conditions: 1000 nM; incubation time: 72 h

Compound	normalised viability [%]
O=C(/C=C/c1cccnc1)NCCCCC1CCN(C(=O)c2ccccc2)CC1 [FK-866]	19.9
CC[C@@H]1C(=O)N(C)c2cnc(Nc3ccc(C(=O)NC4CCN(C)CC4)cc3OC)nc2N1C1CCCC1 [BI 2536]	25.2

same assay, conditions: 10000 nM; incubation time: 72 h

Compound	normalised viability [%]
Nc1nc(F)nc2c1ncn2[C@@H]1O[C@H](CO)[C@@H](O)[C@@H]1O [Fludarabine]	93.6
O=C(O)C1(C(=O)O)CCC1.[NH2-].[NH2-].[Pt+2] [Carboplatin]	25.9
N#Cc1ccc(C(c2ccc(C#N)cc2)n2cncn2)cc1 [Letrozole]	51.8
C1CN1c1nc(N2CC2)nc(N2CC2)n1 [Triethylenemelamine]	40.9
CCCS(=O)(=O)Nc1ccc(F)c(C(=O)c2c[nH]c3ncc(-c4ccc(Cl)cc4)cc23)c1F [Vemurafenib]	75.5
O=C(O)C(=O)O.[NH-][C@@H]1CCCC[C@H]1[NH-].[Pt+2] [Oxaliplatin]	28.5
CCN(CC)CCCC(C)Nc1c2ccc(Cl)cc2nc2ccc(OC)cc12 (centres undefined) [Mepacrine]	2.2
Cc1ccc(-c2cc(C(F)(F)F)nn2-c2ccc(S(N)(=O)=O)cc2)cc1 [Celecoxib]	34

system: HDQ-P1; assay: as above; settings: 990 nM; incubation time: 72 h
Procedure: as §2

Compound	normalised viability [%]
CCN(CC)CCCC(C)Nc1c2ccc(Cl)cc2nc2ccc(OC)cc12 (centres undefined) [Mepacrine]	23.8

same assay, conditions: 1000 nM; incubation time: 72 h

Compound	normalised viability [%]
O=C(/C=C/c1cccnc1)NCCCCC1CCN(C(=O)c2ccccc2)CC1 [FK-866]	58.5
CC[C@@H]1C(=O)N(C)c2cnc(Nc3ccc(C(=O)NC4CCN(C)CC4)cc3OC)nc2N1C1CCCC1 [BI 2536]	86.2

same assay, conditions: 10000 nM; incubation time: 72 h

Compound	normalised viability
Nc1nc(F)nc2c1ncn2[C@@H]1O[C@H](CO)[C@@H](O)[C@@H]1O [Fludarabine]	80.1%
Nc1ncn([C@H]2C[C@H](O)[C@@H](CO)O2)c(=O)n1 [Decitabine]	97.9% and 90.5%
O=C(O)C1(C(=O)O)CCC1.[NH2-].[NH2-].[Pt+2] [Carboplatin]	122%
N#Cc1ccc(C(c2ccc(C#N)cc2)n2cncn2)cc1 [Letrozole]	93%
C1CN1c1nc(N2CC2)nc(N2CC2)n1 [Triethylenemelamine]	101%
CCCS(=O)(=O)Nc1ccc(F)c(C(=O)c2c[nH]c3ncc(-c4ccc(Cl)cc4)cc23)c1F [Vemurafenib]	68.6%
O=C(O)C(=O)O.[NH-][C@@H]1CCCC[C@H]1[NH-].[Pt+2] [Oxaliplatin]	60.2%
CCN(CC)CCCC(C)Nc1c2ccc(Cl)cc2nc2ccc(OC)cc12 (centres undefined) [Mepacrine]	6.19%
Cc1ccc(-c2cc(C(F)(F)F)nn2-c2ccc(S(N)(=O)=O)cc2)cc1 [Celecoxib]	80.3%

system: CAL-51; assay: as above; settings: 990 nM; incubation time: 72 h
Procedure: as §2

Compound	normalised viability [%]
CCN(CC)CCCC(C)Nc1c2ccc(Cl)cc2nc2ccc(OC)cc12 (centres undefined) [Mepacrine]	34.9

same assay, conditions: 1000 nM; incubation time: 72 h

Compound	normalised viability [%]
O=C(/C=C/c1cccnc1)NCCCCC1CCN(C(=O)c2ccccc2)CC1 [FK-866]	34
CC[C@@H]1C(=O)N(C)c2cnc(Nc3ccc(C(=O)NC4CCN(C)CC4)cc3OC)nc2N1C1CCCC1 [BI 2536]	8.2

same assay, conditions: 10000 nM; incubation time: 72 h

Compound	normalised viability
Nc1nc(F)nc2c1ncn2[C@@H]1O[C@H](CO)[C@@H](O)[C@@H]1O [Fludarabine]	101%
Nc1ncn([C@H]2C[C@H](O)[C@@H](CO)O2)c(=O)n1 [Decitabine]	66.7% and 70.4%
O=C(O)C1(C(=O)O)CCC1.[NH2-].[NH2-].[Pt+2] [Carboplatin]	42.3%
N#Cc1ccc(C(c2ccc(C#N)cc2)n2cncn2)cc1 [Letrozole]	96.3%
C1CN1c1nc(N2CC2)nc(N2CC2)n1 [Triethylenemelamine]	60.5%
CCCS(=O)(=O)Nc1ccc(F)c(C(=O)c2c[nH]c3ncc(-c4ccc(Cl)cc4)cc23)c1F [Vemurafenib]	103%
O=C(O)C(=O)O.[NH-][C@@H]1CCCC[C@H]1[NH-].[Pt+2] [Oxaliplatin]	39%
CCN(CC)CCCC(C)Nc1c2ccc(Cl)cc2nc2ccc(OC)cc12 (centres undefined) [Mepacrine]	12.3%
Cc1ccc(-c2cc(C(F)(F)F)nn2-c2ccc(S(N)(=O)=O)cc2)cc1 [Celecoxib]	90.6%

system: CAL-85-1; assay: as above; settings: 990 nM; incubation time: 72 h
Procedure: as §2

Compound	normalised viability [%]
CCN(CC)CCCC(C)Nc1c2ccc(Cl)cc2nc2ccc(OC)cc12 (centres undefined) [Mepacrine]	44.1

same assay, conditions: 1000 nM; incubation time: 72 h

Compound	normalised viability [%]
O=C(/C=C/c1cccnc1)NCCCCC1CCN(C(=O)c2ccccc2)CC1 [FK-866]	49.2
CC[C@@H]1C(=O)N(C)c2cnc(Nc3ccc(C(=O)NC4CCN(C)CC4)cc3OC)nc2N1C1CCCC1 [BI 2536]	61.6

same assay, conditions: 10000 nM; incubation time: 72 h

Compound	normalised viability [%]
Nc1nc(F)nc2c1ncn2[C@@H]1O[C@H](CO)[C@@H](O)[C@@H]1O [Fludarabine]	78.1
O=C(O)C1(C(=O)O)CCC1.[NH2-].[NH2-].[Pt+2] [Carboplatin]	56.2
N#Cc1ccc(C(c2ccc(C#N)cc2)n2cncn2)cc1 [Letrozole]	70.3
C1CN1c1nc(N2CC2)nc(N2CC2)n1 [Triethylenemelamine]	72.8
CCCS(=O)(=O)Nc1ccc(F)c(C(=O)c2c[nH]c3ncc(-c4ccc(Cl)cc4)cc23)c1F [Vemurafenib]	78.3
O=C(O)C(=O)O.[NH-][C@@H]1CCCC[C@H]1[NH-].[Pt+2] [Oxaliplatin]	66.5
CCN(CC)CCCC(C)Nc1c2ccc(Cl)cc2nc2ccc(OC)cc12 (centres undefined) [Mepacrine]	15.1
Cc1ccc(-c2cc(C(F)(F)F)nn2-c2ccc(S(N)(=O)=O)cc2)cc1 [Celecoxib]	63.4

system: DU-4475; assay: as above; settings: 990 nM; incubation time: 72 h
Procedure: as §2

Compound	normalised viability [%]
CCN(CC)CCCC(C)Nc1c2ccc(Cl)cc2nc2ccc(OC)cc12 (centres undefined) [Mepacrine]	30.9

same assay, conditions: 1000 nM; incubation time: 72 h

Compound	normalised viability [%]
O=C(/C=C/c1cccnc1)NCCCCC1CCN(C(=O)c2ccccc2)CC1 [FK-866]	3.53
CC[C@@H]1C(=O)N(C)c2cnc(Nc3ccc(C(=O)NC4CCN(C)CC4)cc3OC)nc2N1C1CCCC1 [BI 2536]	44.9

same assay, conditions: 10000 nM; incubation time: 72 h

Compound	normalised viability
Nc1nc(F)nc2c1ncn2[C@@H]1O[C@H](CO)[C@@H](O)[C@@H]1O [Fludarabine]	99.3%
Nc1ncn([C@H]2C[C@H](O)[C@@H](CO)O2)c(=O)n1 [Decitabine]	53.4% and 64.7%
O=C(O)C1(C(=O)O)CCC1.[NH2-].[NH2-].[Pt+2] [Carboplatin]	63.2%
N#Cc1ccc(C(c2ccc(C#N)cc2)n2cncn2)cc1 [Letrozole]	82.9%
C1CN1c1nc(N2CC2)nc(N2CC2)n1 [Triethylenemelamine]	95.9%
CCCS(=O)(=O)Nc1ccc(F)c(C(=O)c2c[nH]c3ncc(-c4ccc(Cl)cc4)cc23)c1F [Vemurafenib]	-0.32%
O=C(O)C(=O)O.[NH-][C@@H]1CCCC[C@H]1[NH-].[Pt+2] [Oxaliplatin]	41.8%
CCN(CC)CCCC(C)Nc1c2ccc(Cl)cc2nc2ccc(OC)cc12 (centres undefined) [Mepacrine]	4.09%
Cc1ccc(-c2cc(C(F)(F)F)nn2-c2ccc(S(N)(=O)=O)cc2)cc1 [Celecoxib]	68.5%

system: CAL-148; assay: as above; settings: 990 nM; incubation time: 72 h
Procedure: as §2

Compound	normalised viability [%]
CCN(CC)CCCC(C)Nc1c2ccc(Cl)cc2nc2ccc(OC)cc12 (centres undefined) [Mepacrine]	35.4

same assay, conditions: 1000 nM; incubation time: 72 h

Compound	normalised viability [%]
O=C(/C=C/c1cccnc1)NCCCCC1CCN(C(=O)c2ccccc2)CC1 [FK-866]	44.2
CC[C@@H]1C(=O)N(C)c2cnc(Nc3ccc(C(=O)NC4CCN(C)CC4)cc3OC)nc2N1C1CCCC1 [BI 2536]	44.3

same assay, conditions: 10000 nM; incubation time: 72 h

Compound	normalised viability [%]
Nc1nc(F)nc2c1ncn2[C@@H]1O[C@H](CO)[C@@H](O)[C@@H]1O [Fludarabine]	64.9
O=C(O)C1(C(=O)O)CCC1.[NH2-].[NH2-].[Pt+2] [Carboplatin]	44.6
N#Cc1ccc(C(c2ccc(C#N)cc2)n2cncn2)cc1 [Letrozole]	92.4
C1CN1c1nc(N2CC2)nc(N2CC2)n1 [Triethylenemelamine]	80
CCCS(=O)(=O)Nc1ccc(F)c(C(=O)c2c[nH]c3ncc(-c4ccc(Cl)cc4)cc23)c1F [Vemurafenib]	94.1
O=C(O)C(=O)O.[NH-][C@@H]1CCCC[C@H]1[NH-].[Pt+2] [Oxaliplatin]	18.1
CCN(CC)CCCC(C)Nc1c2ccc(Cl)cc2nc2ccc(OC)cc12 (centres undefined) [Mepacrine]	12.4
Cc1ccc(-c2cc(C(F)(F)F)nn2-c2ccc(S(N)(=O)=O)cc2)cc1 [Celecoxib]	55.1
